{"source": "patent US20110319384A1", "about": "“Pharmaceutical Compositions” (priority 2005, published 2011)", "key": {"[1]": {"tested_on": "patients with GAD", "settings": "cited from earlier work"}, "[2]": {"tested_on": "patients with treatment resistant major depression", "assay": "Example 24: augmentation of antidepressant therapy, quetiapine versus lithium, 56 days", "method": "The study compared tolerability and efficacy. […] Lithium was initiated at 600 mg/day, and maintained over Week 1 and 2 and subsequently adjusted to attain a level of 0.8-1.2 mmol/L. Lithium levels were taken weekly.\nA total of 20 patients were randomized to 1 of the 2 treatment groups. The study population included men and women aged 18-65 years, with a diagnosis of major depression according to DSM-IV, Hamilton Depression Rating Scale (HAM-D)≧20 and a Clinical Global […] (CGI) score ≧4.\nPatients were evaluated at baseline and then on days 7, 14, 28, 42, and 56 using the HAM-D, Montgomery-Asberg […] (MADRS), SAS, and Widlocher Psychomotor Retardation Scale."}, "[3]": {"tested_on": "patients resistant to anti-depressant treatment", "settings": "within 4 weeks; adjunct to anti-depressant therapy; cited from earlier work"}, "[4]": {"tested_on": "patients with GAD", "settings": "cited from earlier work", "remark": "listed apart in the source"}, "[5]": {"tested_on": "patients with PTSD", "excerpt": "To be included, patients had to be diagnosed with PTSD according to DSM-IV criteria. Patients with comorbid psychotic disorders or substance abuse problems were excluded. […] The dose was split between morning and night time so that the majority of the dose was taken at bedtime.\nThe primary efficacy endpoints were: (1) change from baseline to endpoint in the Clinician Administered PTSD Scale (CAPS) total score; and (2) the percentage of patients meeting PTSD diagnostic criteria at endpoint. […] Adverse events (AEs) and patient adherence were also evaluated. Forty-seven patients were included in each treatment group."}, "[6]": {"settings": "add-on to antidepressant, mean doses quetiapine 430 mg/day, lithium 825 mg/day"}}, "data": [{"smiles": "COc1ccc(C(CN(C)C)C2(O)CCCCC2)cc1", "note": "(stereo not shown) [Venlafaxine XR, venlafaxine]", "values": [{"measurement": "change in HAM-A total score compared to placebo", "setting": "[1]; at 6 months, another long-term study", "value": 5.4}, {"measurement": "difference in HAM-A total score", "setting": "[1]; long-term study, s.d.=7.5", "value": 4.18, "unit": "points"}]}, {"smiles": "[Li]", "note": "[lithium]", "values": [{"measurement": "Widlocher Psychomotor Retardation Scale mean baseline score", "setting": "[2]; add-on to antidepressant", "value": "about 22"}, {"measurement": "Widlocher Psychomotor Retardation Scale mean score after treatment", "setting": "[2]; add-on to antidepressant", "value": "about 15"}, {"measurement": "mean MADRS score after Day 7 up to Day 56 (end value)", "setting": "[2]; add-on to antidepressant", "value": "about 22"}, {"measurement": "mean HAM-D score at Day 56", "setting": "[2]; [6]", "value": "about 15"}, {"measurement": "mean HAM-D score, start value of 'From Day 7 to 56'", "setting": "[2]; [6]", "value": "about 28"}, {"measurement": "patients in remission (HAM-D)", "setting": "[2]; after 56 days", "value": 40, "unit": "%"}, {"measurement": "patients who responded (MADRS)", "setting": "[2]; after 56 days", "value": 50, "unit": "%"}, {"measurement": "patients who responded to treatment (HAM-D)", "setting": "[2]; after 56 days", "value": 50, "unit": "%"}, {"measurement": "patients who achieved remission (MADRS)", "setting": "[2]; at 56 days", "value": 30, "unit": "%"}, {"measurement": "patients who respond", "setting": "[3]", "value": "~50", "unit": "%"}]}, {"smiles": "Fc1ccc([C@@H]2CCNC[C@H]2COc2ccc3c(c2)OCO3)cc1", "note": "[paroxetine]", "values": [{"measurement": "percent remission", "setting": "[4]; placebo 30%", "value": 70, "unit": "%"}, {"measurement": "relapse", "setting": "[4]; relapse = increase in CGI-S score of at least 2 points to >=4, or withdrawal from lack of efficacy, placebo 39.9%", "value": 10.9, "unit": "%"}]}, {"smiles": "CN[C@H]1CC[C@@H](c2ccc(Cl)c(Cl)c2)c2ccccc21", "note": "[sertraline+placebo, sertraline]", "values": [{"measurement": "mean improvement (decrease) from baseline to endpoint in CAPS total score", "setting": "[5]; 8 weeks", "value": "about 53"}, {"measurement": "patients still meeting PTSD diagnostic criteria", "setting": "[5]; after 8 weeks of treatment, disparity not seen with LOCF analysis", "value": 37, "unit": "%"}, {"measurement": "CGI-I scores", "setting": "[5]; in vivo", "value": "significant increase"}, {"measurement": "mean HAM-D scores and CGI-S scores, baseline to endpoint", "setting": "[5]; in vivo", "value": "decreased significantly"}, {"measurement": "patients that experienced at least one AE", "setting": "[5]; of 59 in the study", "value": 31, "unit": "patients"}]}]}
